We go through 75 molecules from PMC4239038, “The Potent Cdc7-Dbf4 (DDK) Kinase Inhibitor XL413 Has Limited Activity in Many Cancer Cell Lines and Discovery of Potential New DDK Inhibitor Scaffolds” (PLoS ONE, 2014).

Where a name gives a salt, the structure may show the parent alone.

The target of the assay is T1, purified DDK (Homo sapiens, UniProt O00311).
T1 construct: His6-Smt3 (SUMO) (N, cleaved yes); made in house; host or cells: E. coli BL21-RIPL (pKT37, pETDuet-1 vector)
Nature of the assay: DDK thermal stability shift assay (TSA). Format: binding.

The mark [1] stands for this setting: library screen, 20 µM compound, 20 µM.

Usually ΔTm stands for the shift of the melting midpoint relative to a reference.

T1 sequence (O00311 whole entry): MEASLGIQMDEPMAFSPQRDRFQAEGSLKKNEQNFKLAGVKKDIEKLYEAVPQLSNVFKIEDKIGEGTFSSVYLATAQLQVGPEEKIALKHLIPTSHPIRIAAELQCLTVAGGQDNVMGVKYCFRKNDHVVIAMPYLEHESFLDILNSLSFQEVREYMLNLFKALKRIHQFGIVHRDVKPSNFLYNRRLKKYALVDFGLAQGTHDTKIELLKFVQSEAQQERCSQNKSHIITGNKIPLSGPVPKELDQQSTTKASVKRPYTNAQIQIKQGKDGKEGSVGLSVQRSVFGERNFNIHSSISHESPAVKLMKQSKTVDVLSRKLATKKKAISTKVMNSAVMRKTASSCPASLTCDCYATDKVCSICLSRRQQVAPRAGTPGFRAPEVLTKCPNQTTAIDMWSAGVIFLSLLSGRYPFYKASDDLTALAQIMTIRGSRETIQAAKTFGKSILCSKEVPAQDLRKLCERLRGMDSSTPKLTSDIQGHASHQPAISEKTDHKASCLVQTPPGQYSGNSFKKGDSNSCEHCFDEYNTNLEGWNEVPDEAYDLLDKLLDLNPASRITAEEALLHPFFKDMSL
T1 sequence (Q9UBU7 341-674 partner limits assumed): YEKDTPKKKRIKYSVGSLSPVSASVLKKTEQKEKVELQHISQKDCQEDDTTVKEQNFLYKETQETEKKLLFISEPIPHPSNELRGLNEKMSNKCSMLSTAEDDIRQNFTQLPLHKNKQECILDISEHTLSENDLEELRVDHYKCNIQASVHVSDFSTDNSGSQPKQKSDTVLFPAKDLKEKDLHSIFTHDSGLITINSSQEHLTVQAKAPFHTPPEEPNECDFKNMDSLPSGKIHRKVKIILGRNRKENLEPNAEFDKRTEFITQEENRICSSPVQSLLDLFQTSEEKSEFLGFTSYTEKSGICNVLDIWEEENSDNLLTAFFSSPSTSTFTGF

As for `Cl.O=S(=O)(c1cccc2c(I)cccc12)N1CCCNCC1` [ML-7, Hydrochloride], the ΔTm (library screen, 20 µM compound) stood at 0.3 °C.

As for PI 3-Kb Inhibitor II, the ΔTm (library screen, 20 µM compound) was 0.2 °C.

On to `Nc1ncnc2c1cnn2-c1ccccc1` [PP3], for which, for the setting “library screen, 20 µM compound”, the shift in melting temperature (ΔTm) was 0.6 °C.

As to `Cn1nc2c3c(cccc31)C(=O)c1ccccc1-2` [JNK Inhibitor, Negajve Control], under “library screen, 20 µM compound”, the ΔTm turned out to be 0 °C.

As for `Cc1nc2cc3nc(-c4cccs4)cnc3cc2n1C` [AGL 2043], the ΔTm (library screen, 20 µM compound) came out at 0 °C.

As to `Cc1[nH]c(/C=C2\C(=O)Nc3ccc(S(=O)(=O)N(C)c4cccc(Cl)c4)cc32)c(C)c1C(=O)N1CCN(C)CC1` [Met Kinase Inhibitor], the ΔTm (library screen, 20 µM compound) was 0.2 °C.

Take `Nc1[nH]nc2nnc(-c3c(-c4ccccc4)nn4ccccc34)cc12` [ERK Inhibitor II, FR180204]: the ΔTm (library screen, 20 µM compound) was found to be 0 °C.

For `O=C1Nc2ccc(Cl)cc2/C1=C/c1cc(Cl)c(O)c(Cl)c1` [PKR Inhibitor, NegaKve Control], the ΔTm (library screen, 20 µM compound) was 0.2 °C.

Turning to `Nc1ncnc2c1c(I)cn2[C@@H]1O[C@H](CO)[C@@H](O)[C@H]1O` [5-Iodotubercidin], the ΔTm (library screen, 20 µM compound) is 1.9 °C.

For the molecule `CCCOc1ccc(/C=C2/SC(=O)NC2=O)cc1` [PIM1/2 Kinase Inhibitor VI], the ΔTm (library screen, 20 µM compound) is 0.2 °C.

For the molecule `C/C(O)=C(\C#N)C(=O)Nc1cc(Br)ccc1Br` [LFM-A13], the ΔTm (library screen, 20 µM compound) turned out to be 0 °C.

Turning to `O=c1cc(N2CCOCC2)oc2c1ccc1ccccc12` [DNA-PK Inhibitor II], the ΔTm under setting [1] worked out at 1 °C.

`CNc1cc2c(Nc3cccc(Br)c3)ncnc2cn1` [PD 158780]: the ΔTm (library screen, 20 µM compound) was 0.2 °C.

On to `O=C(Nc1ccc(-c2cn[nH]c2)cc1)C1COc2ccccc2O1` (stereo not drawn) [Rho Kinase Inhibitor V], for which the ΔTm (library screen, 20 µM compound) is 1.5 °C.

With `O=C1NC(=O)c2cc(Nc3ccc(F)cc3)c(Nc3ccc(F)cc3)cc21` [CGP 53353], the ΔTm at 20 µM (library screen, 20 µM compound) amounted to 0.4 °C.

Turning to `CC(C)[C@H](CO)Nc1nc(Nc2cccc(Cl)c2)c2ncn(C(C)C)c2n1` [Purvalanol A], the ΔTm at 20 µM (library screen, 20 µM compound) was found to be 0.2 °C.

In the case of `Cc1[nH]c(/C=C2\C(=O)Nc3ccc(S(=O)(=O)Cc4c(Cl)cccc4Cl)cc32)c(C)c1C(=O)N1CCC[C@@H]1CN1CCCC1` [PHA 665752], the ΔTm at 20 µM (library screen, 20 µM compound) is 0.4 °C.

Turning to `Nc1[nH]nc2nc3ccccc3nc12` [NSC 693868], the ΔTm under setting [1] turned out to be 0.2 °C.

As to `CC(=O)c1c(O)c(C)c(O)c(Cc2c(O)c3c(c(C(=O)/C=C/c4ccccc4)c2O)OC(C)(C)C=C3)c1O` [Ro]lerin, 3'-[(8-Cinnamoyl-5,7-dihydroxy-2,2-dimethyl-2H-1-benzopyran-6-yl)methyl]-2',4',6'-trihydroxy-5'-methylacetophenone], under “library screen, 20 µM compound”, the ΔTm at 20 µM worked out at 2.4 °C.

For the molecule `Nc1ncnc2n[nH]c(Nc3ccc(F)cc3)c12` [CGP 57380], the ΔTm under setting [1] is 0.5 °C.

Turning to `O=C1Nc2ccc(I)cc2C1=Cc1cc(Br)c(O)c(Br)c1` [GW 5074, 3-(3,5-Dibromo-4-hydroxy-benzylidene)-5-iodo-1,3-dihydro-indol-2-one], for the setting “library screen, 20 µM compound”, the ΔTm is 3.5 °C.

As for LY 364947, the ΔTm (library screen, 20 µM compound) was 0.6 °C.

On to `COc1cc2ncnc(Nc3cccc(O)c3)c2cc1OC` [WHI-P180, Hydrochloride], for which, where the note is “library screen, 20 µM compound”, the ΔTm was 0 °C.

For the molecule `Cc1ccc(NC(=O)c2cccc(N(C)C)c2)cc1NC(=O)c1ccc(O)cc1` [ZM 336372], where the note is “library screen, 20 µM compound”, the ΔTm amounted to 0.5 °C.

For the molecule `Cl.Cl.NC(N)=NCCNS(=O)(=O)c1cccc2cnccc12` [HA 1004, Dihydrochloride], the ΔTm (library screen, 20 µM compound) amounted to 0 °C.

For “VEGF Receptor Tyrosine Kinase Inhibitor II”, the ΔTm (library screen, 20 µM compound) was found to be 0.2 °C.

In the case of `CC(C)(C)c1cc(C=C(C#N)C#N)cc(Br)c1O` [AG 1024], the ΔTm (library screen, 20 µM compound) amounted to 1.2 °C.

Take `O=C1Cc2c([nH]c3ccc(Br)cc23)-c2ncccc2N1` [1-Azakenpaullone]: the ΔTm (library screen, 20 µM compound) came out at 0.6 °C.

Turning to `O=C(NC(NC(=S)Nc1ccc(F)c([N+](=O)[O-])c1)C(Cl)(Cl)Cl)C(c1ccccc1)c1ccccc1` (stereo not drawn) [CGK 733], the ΔTm under setting [1] is 0.2 °C.

For `c1nc2nc(Nc3ccc(N4CCOCC4)cc3)nc(NC3CCCCC3)c2[nH]1` [Reversine], the ΔTm at 20 µM (library screen, 20 µM compound) came out at 1.4 °C.

For the molecule DNA-PK Inhibitor III, the ΔTm (library screen, 20 µM compound) worked out at 0.2 °C.

With `Oc1c2ccccc2c2c3c(cccc13)N=N2` [SP 600125], under “library screen, 20 µM compound”, the ΔTm at 20 µM came out at 0.2 °C.

Take `CS(=O)(=O)O.Cn1cc(C2=C(c3cn(CCCSC(=N)N)c4ccccc34)C(=O)NC2=O)c2ccccc21` [Ro 31-8220 mesylate]: the ΔTm (library screen, 20 µM compound) amounted to 1.5 °C.

On to `Cl.Cl.NCCNc1ncc(C(N)=O)c(Nc2cccc(C(F)(F)F)c2)n1` [Syk Inhibitor II], for which, under “library screen, 20 µM compound”, the ΔTm turned out to be 1.2 °C.

Consider `Brc1c(Br)c(Br)c2[nH]nnc2c1Br` [TBB, 4,5,6,7-Tetrabromobenzotriazole], for which the ΔTm (library screen, 20 µM compound) was 2.5 °C.

Consider `COc1cc2c(cc1OC)-c1[nH]nc(Nc3cccc(F)c3)c1C2`, for which the ΔTm (library screen, 20 µM compound) was determined as 0.3 °C.

Consider `COc1cc2ncnc(N3CCN(C(=O)Nc4ccc(Oc5ccccc5)cc4)CC3)c2cc1OC`, for which the ΔTm (library screen, 20 µM compound) stood at 0 °C.

As to Cdk1/2 Inhibitor III, the ΔTm (library screen, 20 µM compound) worked out at 1.1 °C.

As to `O=c1cc(N2CCNCC2)oc2c(-c3ccccc3)cccc12` [LY 303511], the ΔTm at 20 µM (library screen, 20 µM compound) is 0.1 °C.

Take `O=c1[nH]c2ccccc2n1C1CCN(Cc2ccc(-c3nc4cc5nc[nH]c5cc4nc3-c3ccccc3)cc2)CC1`: under “library screen, 20 µM compound”, the ΔTm stood at 0 °C.

`CN(C)CCCn1cc(C2=C(c3c[nH]c4ccccc34)C(=O)NC2=O)c2ccccc21` [GF 109203X]: under setting [1], the ΔTm is 0.6 °C.

For `Nc1ccc2ncnc(NCCc3ccc(Oc4ccccc4)cc3)c2c1` [NF-kB Acjvajon Inhibitor], under “library screen, 20 µM compound”, the ΔTm was found to be 0.3 °C.

`COc1cc2nccc(Oc3ccc(NC(=O)Nc4ccc(F)cc4F)c(F)c3)c2cc1OC` [Ki 8751]: for the setting “library screen, 20 µM compound”, the ΔTm was 0.2 °C.

On to `O=C(c1ccc(Nc2nccc(-c3cc4ccccc4s3)n2)cc1)N1CCC(N2CCCC2)CC1` [IKK Inhibitor VII], for which the ΔTm (library screen, 20 µM compound) worked out at 1.7 °C.

As to `CNCCNS(=O)(=O)c1cccc2cnccc12.Cl.Cl` [H-8, Dihydrochloride], the ΔTm (library screen, 20 µM compound) was determined as 0.5 °C.

Turning to `c1ccc(-c2cnc(Nc3ccc(OCCN4CCCC4)cc3)s2)cc1` [Flt-3 Inhibitor III], the ΔTm (library screen, 20 µM compound) is 0.3 °C.

With `COc1cc2ncc(-c3ccccc3)nc2cc1OC` [AG 1296], the ΔTm (library screen, 20 µM compound) is 0 °C.

Regarding `Nc1ccc(-c2cccc3c(=O)cc(N4CCOCC4)oc23)cc1` [PI 828], the ΔTm (library screen, 20 µM compound) was found to be 0.6 °C.

Turning to `O=C1NC(=O)C(c2cn(CCCn3ccnc3)c3ccccc23)=C1Nc1ccccc1` [PKCb Inhibitor], where the note is “library screen, 20 µM compound”, the ΔTm was found to be 0.2 °C.

On to `CCCCCCOC(=O)[C@]1(O)C[C@@H]2O[C@@]1(C)n1c3ccccc3c3c4c(c5c6ccccc6n2c5c31)C(=O)NC4` [KT5720], for which the ΔTm (library screen, 20 µM compound) came out at 0.2 °C.

`O=c1c(-c2ccc(O)cc2)coc2cc(O)cc(O)c12` [Genistein, 5,7-Dihydroxy-3-(4-hydroxyphenyl)-4H-1-benzopyran-4-one]: the ΔTm profile entry (titration across a 200-fold range of inhibitor concentrations) was “increased ΔTm at lower inhibitor concentrations and then decreased ΔTm at 5, 10 and 20 µM concentrations”.

Consider `CS(=O)(=O)c1ccc(-c2nc(-c3ccc(F)cc3)c(-c3ccncc3)[nH]2)cc1` [SB 203580, Sulfone], for which the ΔTm (20 µM) was determined as 0.5 °C.

Consider `CC[C@H](CO)Nc1nc(NCc2ccccc2O)c2ncn(C(C)C)c2n1` [Olomoucine II], for which, where the note is “library screen, 20 µM compound”, the ΔTm at 20 µM stood at 0.2 °C.

`CCN(CC)CCCCN1c2ccccc2Oc2ccc(Cl)cc21` [Akt Inhibitor X]: the ΔTm at 20 µM (library screen, 20 µM compound) was 0.3 °C.

Consider `COc1cc2ncnc(Nc3ccc(Cl)cc3F)c2cc1OC.Cl` [ZM 306416 hydrochloride], for which, under “library screen, 20 µM compound”, the ΔTm came out at 0 °C.

Take `CCN(CC)CCNC(=O)c1c(C)[nH]c(/C=C2\C(=O)Nc3ccc(Cl)cc32)c1C` [SU11652]: the ΔTm at 20 µM (library screen, 20 µM compound) worked out at 1.8 °C.

In the case of `CNC1CC2OC(C)(C1OC)n1c3ccccc3c3c4c(c5c6ccccc6n2c5c31)C(=O)NC4O` (stereo not drawn) [UCN-01, 7-Hydroxystaurosporine], the ΔTm at 10 µM (library screen, 10 µM compound) worked out at 2.1 °C.

As for `Cn1cnc2cc3c(Nc4cccc(Br)c4)ncnc3cc21` [BPIQ-I], the ΔTm (library screen, 20 µM compound) is 0.2 °C.

For `N#Cc1c(C2CCNCC2)cc(-c2c(O)cccc2OCC2CC2)nc1N` [IKK-2 Inhibitor VIII], the ΔTm (library screen, 20 µM compound) amounted to 1.9 °C.

Consider `Cl.Cl.O=S(=O)(NCCNC/C=C/c1ccc(Br)cc1)c1cccc2cnccc12` [H 89 dihydrochloride], for which the ΔTm under setting [1] was 0.3 °C.

Regarding `Oc1ccc(-c2nc(-c3ccncc3)c(-c3ccc(F)cc3)[nH]2)cc1` [SB 202190], under “library screen, 20 µM compound”, the ΔTm at 20 µM turned out to be 0.6 °C.

As to `Cn1cnc2c(NCc3ccccc3)nc(NCCO)nc21` [Olomoucine], for the setting “library screen, 20 µM compound”, the ΔTm at 20 µM was determined as 0.1 °C.

As to `O=C1NC(=O)c2c1c1c3ccccc3[nH]c1n1cncc21` [Isogranulajmide], the ΔTm at 20 µM (library screen, 20 µM compound) turned out to be 1 °C.

With `NC(=O)Nc1cc(-c2ccccc2)sc1C(N)=O` [IKK-2 Inhibitor XI], the ΔTm (library screen, 20 µM compound) turned out to be 0.3 °C.

Take Wee1/Chk1 Inhibitor: the ΔTm (library screen, 20 µM compound) amounted to 0 °C.

KN-62: the ΔTm (library screen, 20 µM compound) was 0.7 °C.

For `Cc1ccc(S(=O)(=O)/C=C/C#N)cc1` [BAY 11-7082], the ΔTm (library screen, 20 µM compound) worked out at 0 °C.

Regarding `CCCCCCCCCCCCCCCCn1cc[n+](Cc2ccccc2)c1C.[I-]` [eEF-2 Kinase Inhibitor, NH125], for the setting “library screen, 20 µM compound”, the ΔTm amounted to 0 °C.

For `O=C(Nc1cc(Cl)cc2c1[nH]c1cnccc12)c1cccnc1` [IKK Inhibitor X], under “library screen, 20 µM compound”, the ΔTm is 0 °C.

On to `CN(C)S(=O)(=O)c1ccc2c(c1)/C(=C/c1cc3c([nH]1)CCCC3)C(=O)N2` [SU6656], for which the ΔTm at 20 µM (library screen, 20 µM compound) was 0.1 °C.

As for `N#C/C(=C(\N)Sc1ccc(N)cc1)c1ccccc1C(F)(F)F` [SL 327], the ΔTm at 20 µM (library screen, 20 µM compound) is 0.5 °C.

Turning to `CN1CCC(Nc2ncc3ncnc(Nc4ccc(F)c(Cl)c4)c3n2)CC1.Cl.Cl` [BIBX 1382 dihydrochloride], under “library screen, 20 µM compound”, the ΔTm came out at 0.8 °C.

For `Cl.O=S(=O)(c1cccc2c(Cl)cccc12)N1CCCNCC1` [ML 9 hydrochloride], the ΔTm (library screen, 20 µM compound) was 0.6 °C.

With `O=C1NC(=O)C(=Cc2ccc(-c3ccc(F)cc3O)o2)S1` [PI 3-Kγ/CKII Inhibitor], under “library screen, 20 µM compound”, the ΔTm came out at 0.3 °C.

Take PP1 Analog II, 1NM-PP1: under “library screen, 20 µM compound”, the ΔTm amounted to 0.2 °C.
